Ends that are not written are not given here.
Key:
[1] = test system: PDL cells; assay: Cell differentiation of PDL cells (alkaline phosphatase activity, Bessey-Lowry method); format: cell-based, human; settings: for ALP activity increasing effect on PDL cells relative to BMP2: at confluent state and one week after (FIG. 5, FIG. 6), comparison with BMP2
Excerpt: PDL cells were isolated from a healthy premolar carefully extracted from a patient who visited a hospital to extract teeth for orthodontic treatment so that periodontal ligament should not be damaged as far as possible, and cultured. The extracted tooth was washed with sterilized physiological saline and phosphate-buffered saline (PBS, Nissui), and then periodontal ligament existing in ⅓ of the tooth root at the center was scraped off with a sharp knife. The pieces of periodontal ligament were transferred to a plastic plate and minced into small fragments using a round-blade knife. Tissue fragments were left standing in a plate having a diameter of 35 mm (FALCON) and cultured in Dulbecco's modified Eagle medium (DMEM, Nissui) containing antibiotics (100 U/ml of penicillin G, 100 μg/ml of streptomycin and 250 μg/ml of gentamicin) and 10% fetal bovine serum (FBS, EQUITECH-BIO) at 37° C. under 5% CO2. Then, cells released from the periodontal ligament tissue fragments were subcultured under the same conditions, and the 3rd to 5th generation cells were used for experiments. • (ii) Mouse-derived Osteoblasts
As an index of cell differentiation, alkaline phosphatase (ALP) activity of cells was determined. Cells were inoculated in a 24-well culture plate at a ratio of 5×10^3 cells/well, added with the peptide (a) at various concentrations and cultured in DMEM or αMEM containing 2% FBS. One week after the time point when the cells reached a confluent state, ALP activity was determined by the following enzymochemical method (Bessey-Lowry method, Bessey O A, Lowry O H and Brock M J, A method for the rapid determination of alkaline phosphatase with five cubic millimeter of serum, J. Biol. Chem., 164:321-329, 1946).
The cultured cells were washed with PBS and then disrupted in 10 mM Tris-HCl buffer (pH 7.4, 500 μl) for 40 seconds by using an ultrasonic homogenizer (Handy Sonic model UR-20P, Tomy Seiko) and stirred. Then, 25 μl of this sample liquid was added to 125 μl of ALP buffer (0.1 M carbonate buffer, pH 9.8, 6.7 mM p-nitrophenyl phosphate, 2 mM MgCl2) and incubated at 37° C. for 30 minutes. The reaction was terminated by addition of 125 μl of 0.2 N NaOH, and absorbance was measured at 405 nm by using a microplate reader (Model 550, Bio-Rad Laboratories).
Further, the ALP activity in DMEM containing 2% FBS and DMEM or αMEM containing 2% FBS added with peptide (c) at various concentrations was also similarly examined. The symbol “cont” in FIG. 4 indicates the results for the cells cultured in DMEM containing 2% FBS alone, “PN” indicates the results for the cells cultured in the medium added only with the peptide (a), and “PC” indicates the results for the cells cultured in the medium added only with the peptide (c). In FIG. 4, “pg” and “ng” represent “pg/ml” and “ng/ml,” respectively.
Further, in addition to the peptide (a) (derived from swine), the human-derived peptide (b) and BMP were similarly examined. The results of ALP activity measurement performed when the cells reached a confluent state are shown in FIG. 5, and the results of ALP activity measurement performed one week after the confluent state was attained are shown in FIG. 6. The symbol “cont” in the figures indicates the results for the cells cultured in DMEM containing 2% FBS alone, “B” indicates the results for the cells cultured in the medium added only with BMP2, “PN” indicates the results for the cells cultured in the medium added only with the peptide (a), and “HN” indicates the results for the cells cultured in the medium added only with the peptide (b) In the figures, the unit of numerical values shown after “B,” “PN” and “HN” is “ng/ml.”

[2] = test system: bone loss model; assay: Bone loss model (tibia defect, soft X-ray); format: in vivo, Wistar rats; settings: for bone regeneration at the bone loss site (X-ray): peptide 3 mg/ml with collagen gel (Koken Atelocollagen Implant), versus control and collagen gel groups
Method: The following experiment was performed in order to examine action of the peptide of the present invention on a bone loss model. • (i) Preparation of Bone Loss Model Male Wistar rats (8-week old) were systemically anesthetized with an ethyl carbamate solution in a volume of 0.5 ml per 100 g of body weight, then the skin of the right and left hind leg tibiae and the periostium of tibiae were incised, and the periostium were reflected to expose the tibiae. Then, a hole having a diameter of 2 mm was perforated in the cortical bone at the same site by using a round bur under pouring physiological saline to form a defect reaching the medullary cavity (diameter: 2 mm, depth: 3 mm). • (ii) Test Method The bone loss site was filled with the peptide (a) (concentration: 0.3 mg/ml or 3 mg/ml) dissolved in a sodium hyaluronate preparation (trade name: ARTZ (registered trade mark), weight average molecular weight of sodium hyaluronate: about 900,000, concentration of sodium hyaluronate: 1%), and the periost and the skin were repositioned and sutured. Healing conditions of the animals 3 weeks after the operation in a group of animals filled with the peptide (peptide group), a group of animals applied with 1% PBS solution of sodium hyaluronate as a vehicle alone (HA group) and a group of animals applied with no substance before the suture of the skin periosteal flap (control group) were examined by using X-ray. • (iii) Results In a similar manner, experiments were performed with collagen gel (trade name: Koken Atelocollagen Implant, Koken) and the peptides (a) and (b) (concentration: 3 mg/ml).

[3] = test system: MC3T3 cells; assay: Cell growth of MC3T3 cells (cell number); format: cell-based, mouse; settings: αMEM containing 2% FBS; on Day 6; versus control (FIG. 3)
Method: As mouse-derived osteoblasts, cells of the MC3T3 cell strain or ST2 cell strain (purchased from Riken Cell Bank) were used. • (iii) Rat Femur Bone Marrow-derived Mesenchymal Stem Cells (BMMSC)
The PDL cells prepared in (1) were inoculated on a 24-well culture plate (FALCON) at a ratio of 5×10^3 cells/well. After the inoculation, the cells were cultured in DMEM containing 10% FBS for 1 day. On Day 0, next day of the inoculation, the peptide (a) prepared above was added to a culture medium (DMEM containing 2% FBS) at various concentrations. On Days 4 and 6, the cells were separated and dispersed by using PBS containing 0.08% trypsin and 0.04% ethylenediaminetetraacetic acid (EDTA), and cell number was counted by using a Coulter counter (COULTER Z1, Coulter Electronics).
Further, the peptides (a) and (b) were similarly examined for cell growth promoting effect on the MC3T3 cells. […] The symbol “cont” in FIG. 3 indicates the results for the cells cultured in αMEM containing 2% FBS alone, “B” indicates the results for the cells cultured in the medium added only with BMP2 (bone morphogenetic protein 2, Yamanouchi Pharmaceutical Co., Ltd.), “HN” indicates the results for the cells cultured in the medium added only with the peptide (b), and “PN” indicates the results for the cells cultured in the medium added with only the peptide (a). […]

[4] = measured at confluent state and one week after (FIG. 5, FIG. 6), versus control

Sequence | ALP activity increasing effect on PDL cells relative to BMP2 [1] | ALP activity of the PDL cells [1, 4] | bone regeneration at the bone loss site (X-ray) [2] | MC3T3 cell number (cell growth promoting effect) [3] | ALP activity of the PDL cells ([1]; peptide at various concentrations, 2% FBS medium, one week after confluent state, versus control (FIG. 4)) | bone regeneration at the bone loss site (soft X-ray images) ([2]; peptide (a) 0.3 mg/ml or 3 mg/ml in 1% sodium hyaluronate preparation (ARTZ), 3 weeks after operation, versus control and HA groups)
VPFFPQQSGTPGMASL [Peptide (b), peptide designed on the portion of human-derived sheathlin protein corresponding to (a)] | comparable to or higher than that of BMP2 | significantly increased | bone had been regenerated to such an extent that bone loss could hardly be recognized | significantly increased |  | 
VPAFPRQPGTPGVASL [Peptide (a)] | comparable to or higher than that of BMP2 | significantly increased | bone had been regenerated to such an extent that bone loss could hardly be recognized | significantly increased | significantly increased | bone had been regenerated to such an extent that bone loss could hardly be recognized

Source: patent US7678884B2, “Biologically active peptide and agent containing the same” (Seikagaku Corporation, priority 2003, dated 2010)
